Results from patent US20070128217A1 (priority 2003, published 2007).

Assays:
[1] = tested on: antibodies in sera from SARS patients (sera 1a, 1b, 2, 6, 37, 62, London, SARS-yellow, SARS-green); assay type: binding, human; design: Binding of serum 6 to linear peptides of protein X1 of SARS-CoV Urbani / Binding of serum 37 to linear peptides of protein X1 of SARS-CoV Urbani / Binding of serum 6 to looped/cyclic peptide (PEPSCAN-ELISA) / Binding of serum 37 to looped/cyclic peptide (PEPSCAN-ELISA) / Binding of serum 37 to looped/cyclic peptides of protein X1 of SARS-CoV Urbani / Binding of serum 6 to linear peptides of protein X2 / Binding of serum 37 to linear peptides of protein X2 / Binding of serum 37 to looped/cyclic peptides of protein X2 of SARS-CoV Urbani / Binding of serum 6 to linear peptides of protein M of SARS-CoV Urbani / Binding of serum 37 to linear peptides of protein M of SARS-CoV Urbani / Binding of serum 6 to looped/cyclic peptides of protein M of SARS-CoV Urbani / Binding of serum 37 to looped/cyclic peptides of protein M of SARS-CoV Urbani / Binding of serum 6 to linear peptides of protein X3 of SARS-CoV Urbani / Binding of serum 37 to linear peptides of protein X3 of SARS-CoV Urbani / Binding of serum 37 to looped/cyclic peptides of protein X3 of SARS-CoV Urbani / Binding of serum 6 to linear peptides of protein X4 of SARS-CoV Urbani / Binding of serum 37 to linear peptides of protein X4 of SARS-CoV Urbani / Binding of serum 37 to looped/cyclic peptides of protein X4 of SARS-CoV Urbani / Binding of serum 6 to linear peptides of protein X5 of SARS-CoV Urbani / Binding of serum 37 to linear peptides of protein X5 of SARS-CoV Urbani / Binding of serum 37 to looped/cyclic peptides of protein X5 of SARS-CoV Urbani / Binding of serum 6 to linear peptides of protein N of SARS-CoV Urbani / Binding of serum 37 to linear peptides of protein N of SARS-CoV Urbani / Binding of serum 6 to linear peptide (PEPSCAN-ELISA) / Binding of serum 1a to looped/cyclic peptides of protein N of SARS-CoV Urbani / Binding of serum 1b to looped/cyclic peptides of protein N of SARS-CoV Urbani / Binding of serum 2 to looped/cyclic peptides of protein N of SARS-CoV Urbani / Binding of serum 6 to looped/cyclic peptides of protein N of SARS-CoV Urbani / Binding of serum 37 to looped/cyclic peptides of protein N of SARS-CoV Urbani / Binding of serum 62 to looped/cyclic peptides of protein N of SARS-CoV Urbani / Binding of serum London to looped/cyclic peptides of protein N of SARS-CoV Urbani / Binding of serum SARS-green to looped/cyclic peptides of protein N of SARS-CoV Urbani: unit not given here
[2] = tested on: control sera (pooled serum of ten healthy LUMC hospital workers; commercial negative donor pooled serum from the Dutch bloodbank); assay type: binding, human; design: Binding of Control serum LUMC to linear peptides / Binding of Control serum Blood-bank to linear peptides / Binding of Control serum LUMC to looped peptides / Binding of Control Serum Blood-Bank to Looped peptides / Binding of Control serum LUMC to linear peptides of the protein M of SARS-CoV Urbani / Binding of Control serum Blood-bank to linear peptides of the protein M of SARS-CoV Urbani / Binding of Control serum LUMC to looped peptides of the protein M of SARS-CoV Urbani / Binding of Control Serum Blood-Bank to Looped peptides of the protein M of SARS-CoV Urbani: unit not given here
[3] = tested on: rabbit serum obtained by immunizing a rabbit with the SARS-CoV strain Frankfurt 1; assay type: binding; design: Binding of a rabbit serum to linear peptides / Binding of a rabbit serum to looped peptides / Rabbit serum linear peptides / Rabbit serum looped peptides / Binding of a rabbit serum to linear peptides of protein N of SARS-CoV Urbani (Rabbit serum linear peptides) / Binding of a rabbit serum to looped/cyclic peptides of protein N of SARS-CoV Urbani (Rabbit serum looped peptides): unit not given here
[4] = tested on: recombinant human anti-SARS-CoV antibody 03-018; assay type: binding; design: Binding of antibody 03-018 to linear peptides of the N protein of SARS-CoV Urbani / Binding of antibody 03-018 to looped/cyclic peptides of the N protein of SARS-CoV Urbani: unit not given here

INTNSGPDDQIGYYR
0.5: Binding of serum 62 to looped/cyclic peptides of protein N of SARS-CoV Urbani [1] | Binding of serum SARS-green to looped/cyclic peptides of protein N of SARS-CoV Urbani [1] | Binding of serum SARS-yellow to looped/cyclic peptides of protein N of SARS-CoV Urbani [1] | Binding of a rabbit serum to looped/cyclic peptides of protein N of SARS-CoV Urbani (Rabbit serum looped peptides) [3]
0.6: Binding of Control Serum Blood-Bank to Looped peptides [2]
0.9: Binding of serum 37 to linear peptides of protein N of SARS-CoV Urbani [1]
0.2: Binding of serum 1b to linear peptides of protein N of SARS-CoV Urbani [1] | Binding of serum 2 to linear peptides of protein N of SARS-CoV Urbani [1] | Binding of serum 6 to linear peptides of protein N of SARS-CoV Urbani [1] | Binding of serum 6 to looped/cyclic peptides of protein N of SARS-CoV Urbani [1] | Binding of serum SARS-green to linear peptides of protein N of SARS-CoV Urbani [1] | Binding of a rabbit serum to linear peptides of protein N of SARS-CoV Urbani (Rabbit serum linear peptides) [3] | Binding of antibody 03-018 to looped/cyclic peptides of the N protein of SARS-CoV Urbani [4]
0.1: Binding of antibody 03-018 to linear peptides of the N protein of SARS-CoV Urbani [4]
0.3: Binding of serum 1a to linear peptides of protein N of SARS-CoV Urbani [1] | Binding of serum 1b to looped/cyclic peptides of protein N of SARS-CoV Urbani [1]
0.8: Binding of Control serum Blood-bank to linear peptides [2]
0.7: Binding of serum 37 to looped/cyclic peptides of protein N of SARS-CoV Urbani [1] | Binding of serum 62 to linear peptides of protein N of SARS-CoV Urbani [1] | Binding of serum SARS-yellow to linear peptides of protein N of SARS-CoV Urbani [1] | Binding of Control serum LUMC to linear peptides [2] | Binding of Control serum LUMC to looped peptides [2]
0.4: Binding of serum 1a to looped/cyclic peptides of protein N of SARS-CoV Urbani [1] | Binding of serum 2 to looped/cyclic peptides of protein N of SARS-CoV Urbani [1] | Binding of serum London to linear peptides of protein N of SARS-CoV Urbani [1] | Binding of serum London to looped/cyclic peptides of protein N of SARS-CoV Urbani [1]

IRQGTDYKHWPQIAQ
0.7: Binding of serum 37 to linear peptides of protein N of SARS-CoV Urbani [1] | Binding of Control serum Blood-bank to linear peptides [2] | Binding of Control serum LUMC to linear peptides [2]
0.3: Binding of serum SARS-green to linear peptides of protein N of SARS-CoV Urbani [1] | Binding of serum SARS-green to looped/cyclic peptides of protein N of SARS-CoV Urbani [1] | Binding of a rabbit serum to looped/cyclic peptides of protein N of SARS-CoV Urbani (Rabbit serum looped peptides) [3]
0.9: Binding of serum London to linear peptides of protein N of SARS-CoV Urbani [1]
0.4: Binding of serum 1a to looped/cyclic peptides of protein N of SARS-CoV Urbani [1] | Binding of serum 2 to looped/cyclic peptides of protein N of SARS-CoV Urbani [1] | Binding of serum London to looped/cyclic peptides of protein N of SARS-CoV Urbani [1] | Binding of serum SARS-yellow to looped/cyclic peptides of protein N of SARS-CoV Urbani [1]
0.6: Binding of serum 37 to looped/cyclic peptides of protein N of SARS-CoV Urbani [1] | Binding of serum 62 to linear peptides of protein N of SARS-CoV Urbani [1] | Binding of serum 62 to looped/cyclic peptides of protein N of SARS-CoV Urbani [1] | Binding of serum SARS-yellow to linear peptides of protein N of SARS-CoV Urbani [1] | Binding of Control serum LUMC to looped peptides [2]
0.5: Binding of Control Serum Blood-Bank to Looped peptides [2]
0.1: Binding of serum 1b to linear peptides of protein N of SARS-CoV Urbani [1] | Binding of a rabbit serum to linear peptides of protein N of SARS-CoV Urbani (Rabbit serum linear peptides) [3] | Binding of antibody 03-018 to linear peptides of the N protein of SARS-CoV Urbani [4]
0.2: Binding of serum 1a to linear peptides of protein N of SARS-CoV Urbani [1] | Binding of serum 1b to looped/cyclic peptides of protein N of SARS-CoV Urbani [1] | Binding of serum 2 to linear peptides of protein N of SARS-CoV Urbani [1] | Binding of serum 6 to linear peptides of protein N of SARS-CoV Urbani [1] | Binding of serum 6 to looped/cyclic peptides of protein N of SARS-CoV Urbani [1] | Binding of antibody 03-018 to looped/cyclic peptides of the N protein of SARS-CoV Urbani [4]

IVWVATEGALNTPKD
0.2: Binding of serum 1a to linear peptides of protein N of SARS-CoV Urbani [1] | Binding of serum 1b to looped/cyclic peptides of protein N of SARS-CoV Urbani [1] | Binding of serum 2 to linear peptides of protein N of SARS-CoV Urbani [1] | Binding of serum 6 to linear peptides of protein N of SARS-CoV Urbani [1] | Binding of serum SARS-yellow to looped/cyclic peptides of protein N of SARS-CoV Urbani [1] | Binding of a rabbit serum to looped/cyclic peptides of protein N of SARS-CoV Urbani (Rabbit serum looped peptides) [3] | Binding of antibody 03-018 to looped/cyclic peptides of the N protein of SARS-CoV Urbani [4]
0.5: Binding of serum 37 to looped/cyclic peptides of protein N of SARS-CoV Urbani [1] | Binding of Control serum LUMC to looped peptides [2]
0.6: Binding of serum London to linear peptides of protein N of SARS-CoV Urbani [1] | Binding of serum SARS-yellow to linear peptides of protein N of SARS-CoV Urbani [1]
0.4: Binding of Control Serum Blood-Bank to Looped peptides [2]
0.1: Binding of serum 1b to linear peptides of protein N of SARS-CoV Urbani [1] | Binding of serum 6 to looped/cyclic peptides of protein N of SARS-CoV Urbani [1] | Binding of a rabbit serum to linear peptides of protein N of SARS-CoV Urbani (Rabbit serum linear peptides) [3] | Binding of antibody 03-018 to linear peptides of the N protein of SARS-CoV Urbani [4]
0.8: Binding of Control serum Blood-bank to linear peptides [2] | Binding of Control serum LUMC to linear peptides [2]
0.9: Binding of serum SARS-green to looped/cyclic peptides of protein N of SARS-CoV Urbani [1]
0.3: Binding of serum 1a to looped/cyclic peptides of protein N of SARS-CoV Urbani [1] | Binding of serum 2 to looped/cyclic peptides of protein N of SARS-CoV Urbani [1] | Binding of serum 62 to looped/cyclic peptides of protein N of SARS-CoV Urbani [1] | Binding of serum London to looped/cyclic peptides of protein N of SARS-CoV Urbani [1] | Binding of serum SARS-green to linear peptides of protein N of SARS-CoV Urbani [1]
0.7: Binding of serum 37 to linear peptides of protein N of SARS-CoV Urbani [1] | Binding of serum 62 to linear peptides of protein N of SARS-CoV Urbani [1]
